According to US9850256B2, “Antibacterial basic biaromatic derivatives with aminoalkoxy substitution” (priority 2014, dated 2017):
≈ marks a conversion by molar mass, not a printed value.

How the values were obtained:
Experiment in all cases: Bacterial growth minimal inhibitory concentration (microdilution, cation-adjusted Mueller-Hinton Broth)
S. aureus A798 = format: cell-based, Staphylococcus aureus; details: Staphylococcus aureus, A798; multiply-resistant strain (methicillin- and quinolone-resistant)
Procedure: (§1) Minimal Inhibitory Concentrations (MICs; mg/L) were determined in cation-adjusted Mueller-Hinton Broth by a microdilution method following the description given in “Methods for Dilution Antimicrobial Susceptibility Tests for Bacteria that Grow Aerobically”, Approved standard, 7th ed., Clinical and Laboratory Standards Institute (CLSI) Document M7-A7, Wayne, Pa., USA (2006).
(§2) All Example compounds were tested against several Gram positive and Gram negative bacteria. […] Staphylococcus aureus A798 is a multiply-resistant strain (methicillin- and quinolone-resistant), Klebsiella pneumoniae T6474 is a multiply-resistant strain (penicillin-, cephalosporin- and in particular quinolone-resistant), while E. coli ATCC25922 and Pseudomonas aeruginosa ATCC 27853 are quinolone-sensitive strains.

E. coli ATCC25922 = format: cell-based; details: Escherichia coli, ATCC25922; quinolone-sensitive strain
Procedure: as §1, §2

K. pneumoniae T6474 = format: cell-based, Klebsiella pneumoniae; details: Klebsiella pneumoniae, T6474; multiply-resistant strain (penicillin-, cephalosporin- and quinolone-resistant)
Procedure: as §1, §2

P. aeruginosa ATCC 27853 = format: cell-based, Pseudomonas aeruginosa; details: Pseudomonas aeruginosa, ATCC27853; quinolone-sensitive strain
Procedure: as §1, §2

SMILES | MIC (S. aureus A798) [µg/mL] | MIC (E. coli ATCC25922) [µg/mL] | MIC (K. pneumoniae T6474) [µg/mL] | MIC (P. aeruginosa ATCC 27853) [µg/mL]
NCCCOc1cccc(-c2cccc(CNCC[C@H]3CN(c4ccc5c(n4)NC(=O)CO5)C(=O)O3)c2)c1 [Example 3, 6-[(S)-5-(2-{[3′-(3-amino-propoxy)-biphenyl-3-ylmethyl]-amino}-ethyl)-2-oxo-oxazolidin-3-yl]-4H-pyrido[3,2-b][1,4]oxazin-3-one] | 2 (≈ 3.86 µM) | 1 (≈ 1.93 µM) | 2 (≈ 3.86 µM) | 2 (≈ 3.86 µM)
CN1CC(Oc2cccc(-c3cccc(CNCC[C@H]4CN(c5ccc6c(n5)NC(=O)CO6)C(=O)O4)c3)n2)C1 [Example $122, 6-[(S)-5-(2-{3-[6-(1-methyl-azetidin-3-yloxy)-pyridin-2-yl]-benzylamino}-ethyl)-2-oxo-oxazolidin-3-yl]-4H-pyrido[3,2-b][1,4]oxazin-3-one] | 0.25 (≈ 0.471 µM) | 0.25 (≈ 0.471 µM) | 0.5 (≈ 0.942 µM) | 0.5 (≈ 0.942 µM)
CN1CC[C@@H](COc2cccc(-c3cccc(CNCC[C@H]4CN(c5ccc6c(n5)NC(=O)CO6)C(=O)O4)c3)n2)C1 [Example $140, 6-[(S)-5-(2-{3-[6-((R)-1-methyl-pyrrolidin-3-ylmethoxy)-pyridin-2-yl]-benzylamino}-ethyl)-2-oxo-oxazolidin-3-yl]-4H-pyrido[3,2-b][1,4]oxazin-3-one] | 0.5 (≈ 0.895 µM) | 2 (≈ 3.58 µM) | 2 (≈ 3.58 µM) | 2 (≈ 3.58 µM)
CN(C)CCOc1cccc(-c2cccc(CNCC[C@H]3CN(c4ccc5c(n4)NC(=O)CO5)C(=O)O3)c2)c1 [Example 2, 6-[(S)-5-(2-{[3′-(2-dimethylamino-ethoxy)-biphenyl-3-ylmethyl]-amino}-ethyl)-2-oxo-oxazolidin-3-yl]-4H-pyrido[3,2-b][1,4]oxazin-3-one] | 0.5 (≈ 0.941 µM) | 2 (≈ 3.76 µM) | 2 (≈ 3.76 µM) | 4 (≈ 7.52 µM)
CN1CC[C@H](COc2cccc(-c3cccc(CNCC[C@H]4CN(c5ccc6c(n5)NC(=O)CO6)C(=O)O4)c3)n2)C1 [Example $141, 6-[(S)-5-(2-{3-[6-((S)-1-methyl-pyrrolidin-3-ylmethoxy)-pyridin-2-yl]-benzylamino}-ethyl)-2-oxo-oxazolidin-3-yl]-4H-pyrido[3,2-b][1,4]oxazin-3-one] | 0.5 (≈ 0.895 µM) | 2 (≈ 3.58 µM) | 2 (≈ 3.58 µM) | 2 (≈ 3.58 µM)
O=C1COc2ccc(N3C[C@H](CCNCc4cccc(-c5cccc(OC[C@H]6CCNC6)n5)c4)OC3=O)nc2N1 [Example $144, 6-[(S)-2-oxo-5-(2-{3-[6-((S)-1-pyrrolidin-3-ylmethoxy)-pyridin-2-yl]-benzylamino}-ethyl)-oxazolidin-3-yl]-4H-pyrido[3,2-b][1,4]oxazin-3-one] | 2 (≈ 3.67 µM) | 4 (≈ 7.34 µM) | 4 (≈ 7.34 µM) | 1 (≈ 1.84 µM)
CN1CC[C@H](Oc2cccc(-c3cccc(CNCC[C@@H]4CN(c5ccc6c(c5)NC(=O)CS6)C(=O)O4)c3)n2)C1 [Example $150, 6-[(R)-5-(2-{3-[6-((S)-1-methyl-pyrrolidin-3-yloxy)-pyridin-2-yl]-benzylamino}-ethyl)-2-oxo-oxazolidin-3-yl]-4H-benzo[1,4]thiazin-3-one] | 2 (≈ 3.57 µM) | 2 (≈ 3.57 µM) | 2 (≈ 3.57 µM) | 2 (≈ 3.57 µM)
NCCOc1cc(-c2cccc(CNCC[C@H]3CN(c4ccc5c(n4)NC(=O)CO5)C(=O)O3)c2)ccn1.O=CO [Example 19, 6-[(S)-5-(2-{3-[2-(2-amino-ethoxy)-pyridin-4-yl]-benzylamino}-ethyl)-2-oxo-oxazolidin-3-yl]-4H-pyrido[3,2-b][1,4]oxazin-3-one formate] | 8 | 1 | 4 | 1
CN1CC[C@H](Oc2cnnc(-c3cccc(CNCC[C@H]4CN(c5ccc6c(n5)NC(=O)CO6)C(=O)O4)c3)c2)C1 [Example $153, 6-[(S)-5-(2-{3-[5-((S)-1-methyl-pyrrolidin-3-yloxy)-pyridazin-3-yl]-benzylamino}-ethyl)-2-oxo-oxazolidin-3-yl]-4H-pyrido[3,2-b][1,4]oxazin-3-one] | 4 (≈ 7.33 µM) | 2 (≈ 3.67 µM) | 4 (≈ 7.33 µM) | 4 (≈ 7.33 µM)
CN1CC[C@H](Oc2cccc(-c3ccnc(CNCC[C@H]4CN(c5ccc6c(n5)NC(=O)CO6)C(=O)O4)c3)n2)C1 [Example $128, 6-[(S)-5-(2-{[6-((S)-1-methyl-pyrrolidin-3-yloxy)-[2,4′]bipyridinyl-2′-ylmethyl]-amino}-ethyl)-2-oxo-oxazolidin-3-yl]-4H-pyrido[3,2-b][1,4]oxazin-3-one] | 0.25 (≈ 0.458 µM) | 0.5 (≈ 0.916 µM) | 1 (≈ 1.83 µM) | 1 (≈ 1.83 µM)
CN1CC[C@H](Oc2ccnc(-c3cccc(CNCC[C@H]4CN(c5ccc6c(n5)NC(=O)CO6)C(=O)O4)c3)n2)C1 [Example $137, 6-[(S)-5-(2-{3-[4-((S)-1-methyl-pyrrolidin-3-yloxy)-pyrimidin-2-yl]-benzylamino}-ethyl)-2-oxo-oxazolidin-3-yl]-4H-pyrido[3,2-b][1,4]oxazin-3-one] | 0.5 (≈ 0.916 µM) | 1 (≈ 1.83 µM) | 1 (≈ 1.83 µM) | 1 (≈ 1.83 µM)
C[C@@H](N)COc1cccc(-c2cccc(CNCC[C@H]3CN(c4ccc5c(n4)NC(=O)CO5)C(=O)O3)c2)n1 [Example 17, 6-[(S)-5-(2-{3-[6-((R)-2-amino-propoxy)-pyridin-2-yl]-benzylamino}-ethyl)-2-oxo-oxazolidin-3-yl]-4H-pyrido[3,2-b][1,4]oxazin-3-one] | 0.5 (≈ 0.964 µM) | 1 (≈ 1.93 µM) | 2 (≈ 3.86 µM) | 1 (≈ 1.93 µM)
O=C1COc2ccc(N3C[C@H](CCNCc4cccc(-c5cccc(OCCN6CCCCC6)c5)c4)OC3=O)nc2N1 [Example 13, 6-[(S)-2-oxo-5-(2-{[3′-(2-piperidin-1-yl-ethoxy)-biphenyl-3-ylmethyl]-amino}-ethyl)-oxazolidin-3-yl]-4H-pyrido[3,2-b][1,4]oxazin-3-one] | 0.5 (≈ 0.875 µM) | 2 (≈ 3.5 µM) | 2 (≈ 3.5 µM) | 8 (≈ 14 µM)
CN1CC[C@H](Oc2cccc(-c3cccc(CNCC[C@H]4CN(c5ccc6c(n5)NC(=O)CO6)C(=O)O4)n3)n2)C1 [Example $129, 6-[(S)-5-(2-{[6′-((S)-1-methyl-pyrrolidin-3-yloxy)-[2,2′]bipyridinyl-6-ylmethyl]-amino}-ethyl)-2-oxo-oxazolidin-3-yl]-4H-pyrido[3,2-b][1,4]oxazin-3-one] | 2 (≈ 3.67 µM) | 4 (≈ 7.33 µM) | 4 (≈ 7.33 µM) | 8 (≈ 14.7 µM)

Now from value to compound:

MIC (S. aureus A798) [µg/mL] | MIC (E. coli ATCC25922) [µg/mL] | MIC (K. pneumoniae T6474) [µg/mL] | MIC (P. aeruginosa ATCC 27853) [µg/mL] | SMILES
4 (≈ 7.33 µM) | 2 (≈ 3.67 µM) | 4 (≈ 7.33 µM) | 4 (≈ 7.33 µM) | CN1CC[C@@H](Oc2cnnc(-c3cccc(CNCC[C@H]4CN(c5ccc6c(n5)NC(=O)CO6)C(=O)O4)c3)c2)C1 [Example $166, 6-[(S)-5-(2-{3-[5-((R)-1-methyl-pyrrolidin-3-yloxy)-pyridazin-3-yl]-benzylamino}-ethyl)-2-oxo-oxazolidin-3-yl]-4H-pyrido[3,2-b][1,4]oxazin-3-one]
0.25 (≈ 0.469 µM) | 1 (≈ 1.88 µM) | 1 (≈ 1.88 µM) | 2 (≈ 3.76 µM) | CN1CC(Oc2cncc(-c3cc(CNCC[C@H]4CN(c5ccc6c(n5)NC(=O)CO6)C(=O)O4)ccn3)n2)C1 [Example $189, 6-{(S)-5-[2-({2-[6-(1-methyl-azetidin-3-yloxy)-pyrazin-2-yl]-pyridin-4-ylmethyl}-amino)-ethyl]-2-oxo-oxazolidin-3-yl}-4H-pyrido[3,2-b][1,4]oxazin-3-one]
4 (≈ 7.9 µM) | 8 (≈ 15.8 µM) | 16 (≈ 31.6 µM) | 2 (≈ 3.95 µM) | NCCOc1cncc(-c2ccnc(CNCC[C@H]3CN(c4ccc5c(n4)NC(=O)CO5)C(=O)O3)c2)n1 [Example $158, 6-{(S)-5-[2-({4-[6-(2-amino-ethoxy)-pyrazin-2-yl]-pyridin-2-ylmethyl}-amino)-ethyl]-2-oxo-oxazolidin-3-yl}-4H-pyrido[3,2-b][1,4]oxazin-3-one]
> 16 | 16 (≈ 30.1 µM) | > 16 | 4 (≈ 7.52 µM) | O=C1COc2ccc(N3C[C@H](CCNCc4cccc(-c5cc(O[C@@H]6CCNC6)cnn5)c4)OC3=O)nc2N1 [Example $180, 6-[(S)-2-oxo-5-(2-{3-[5-((R)-pyrrolidin-3-yloxy)-pyridazin-3-yl]-benzylamino}-ethyl)-oxazolidin-3-yl]-4H-pyrido[3,2-b][1,4]oxazin-3-one]
8 (≈ 14.3 µM) | 4 (≈ 7.14 µM) | 8 (≈ 14.3 µM) | 2 (≈ 3.57 µM) | CO[C@H]1CNC[C@H]1Oc1cccc(-c2cccc(CNCC[C@H]3CN(c4ccc5c(n4)NC(=O)CO5)C(=O)O3)c2)n1 (relative stereo) [Example $184, (3R*,4S*)-6-[(S)-5-(2-{3-[6-(4-methoxy-pyrrolidin-3-yloxy)-pyridin-2-yl]-benzylamino}-ethyl)-2-oxo-oxazolidin-3-yl]-4H-pyrido[3,2-b][1,4]oxazin-3-one]
1 (≈ 1.7 µM) | 2 (≈ 3.39 µM) | 16 (≈ 27.1 µM) | 2 (≈ 3.39 µM) | NCCN(CCN)CCOc1cccc(-c2cccc(CNCC[C@H]3CN(c4ccc5c(n4)NC(=O)CO5)C(=O)O3)c2)c1 [Example $155, 6-((S)-5-{2-[(3′-{2-[bis-(2-amino-ethyl)-amino]-ethoxy}-biphenyl-3-ylmethyl)-amino]-ethyl}-2-oxo-oxazolidin-3-yl)-4H-pyrido[3,2-b][1,4]oxazin-3-one]
0.5 (≈ 0.918 µM) | 1 (≈ 1.84 µM) | 2 (≈ 3.67 µM) | 0.5 (≈ 0.918 µM) | C[C@@H]1NCC[C@@H]1Oc1cccc(-c2cccc(CNCC[C@H]3CN(c4ccc5c(n4)NC(=O)CO5)C(=O)O3)c2)n1 (relative stereo) [Example $172, 6-[(S)-5-(2-{3-[6-((2S*,3S*)-2-methyl-pyrrolidin-3-yloxy)-pyridin-2-yl]-benzylamino}-ethyl)-2-oxo-oxazolidin-3-yl]-4H-pyrido[3,2-b][1,4]oxazin-3-one]
